In test [1] the test system is HSP17.6C-C1 of Arabidopsis thaliana. Nature of the test: HSP expression test (HSP17.6C-C1 upstream region linked to GUS, 4-MU production). On the set-up: key: 4-MU per plant divided by 4-MU of 50 μM geldanamycin positive control. The note with it: soaked 6 hours at 22° C., positive control 50 μM geldanamycin. Type of test: in vivo. The protocol: First, a construct linked to β-glucuronidase (GUS) gene was introduced to 1 kb upstream of HSP17.6C-C1 of Arabidopsis thaliana (the family Brassicaceae) to prepare a mutant. Each naphthoquinone compound (shown in Table 1) dissolved in DMSO was diluted to 1 μM, 10 μM, 100 μM, or 1000 μM (final concentration) with deionized water to prepare a test solution of each example (final concentration of DMSO: 1.0% by volume). A 50 μM geldanamycin solution was similarly prepared as a positive control.
Next, two individuals of 7-day-old Arabidopsis thaliana mutants grown in a ⅕ MS medium were soaked in 300 μL of the test solution of each example or the positive control at 22° C. for 6 hours. The Arabidopsis thaliana was washed with deionized water, then soaked in 200 μL of a 4-methylumbelliferyl-β-D-glucuronide hydrate solution containing a surfactant, and incubated at 22° C. for 16 hours in the dark. The fluorescence intensity of the supernatant was measured, and the amount of 4-methylumbelliferone (4-MU) production per plant was calculated. The calculated value of 4-MU was divided by the value of 4-MU of the positive control to calculate a ratio vs. positive control. A higher numerical value means that HSP was expressed at a larger level.
Each shikonin compound or alkannin compound (shown in Table 2) dissolved in DMSO was diluted to 1 μM, 10 μM, 100 μM, or 1000 μM (final concentration) with deionized water to prepare a test solution of each example (final concentration of DMSO: 1.0% by volume). A 50 μM geldanamycin solution was similarly prepared as a positive control. The other test procedures were performed in the same way as in Test Example 1. The calculated value of 4-MU was divided by the value of 4-MU of the positive control to calculate a ratio vs. positive control. […]

The next test concerns Arabidopsis thaliana. Nature of the test: Heat tolerance induction test based on chlorophyll concentration. The format is in vivo. The note with it: 50 μM in medium; heat-treated at 44° C. for 1 hour; 3 days culture after. The method, then:
A ⅕ MS medium was prepared in a 6-well plate, and filter paper was placed thereon. 12 individuals of wild-type Arabidopsis thaliana were seeded per well and grown at 22° C. for 7 days in a plant incubator under 16-hour light and 8-hour dark conditions. Next, the naphthoquinone compound of each example (shown in Table 3) dissolved in DMSO was added to a ⅕ MS medium, and each medium (final concentration: 50 μM) was prepared in a 6-well plate (final concentration of DMSO: 1.0% by volume). A medium containing 1.0% by volume of DMSO was used as a control.
The Arabidopsis thaliana grown for 7 days in the 6-well plate was transplanted, together with the filter paper, to the medium containing the compound and cultured for 1 day in a plant incubator. The plate was placed in a plastic bag and heat-treated at 44° C. for 1 hour in a water bath. After the heat treatment, culture was performed for 3 days in a plant incubator. The leaves of 4 Arabidopsis thaliana individuals were cut out, and chlorophyll was extracted with 300 μL of ethanol. The absorbance of each extract was measured at 649 nm and 665 nm, and the chlorophyll concentration (mg/L) was calculated. A higher chlorophyll concentration means that heat tolerance is better.
The shikonin compound of each example (shown in Table 4) dissolved in DMSO was added to a ⅕ MS medium, and each medium (final concentration: 50 μM) was prepared in a 6-well plate (final concentration of DMSO: 1.0% by volume). A medium containing 1% by volume of DMSO was used as a control. The other test procedures were performed in the same way as in Test Example 3.
The Lithospermi radix extract used was Shikonix Liquid (BG) (trade name, manufactured by Ichimaru Pharcos Co., Ltd.) containing a Lithospermum erythrorhizon root extract. The Shikonix Liquid contained, as major components, shikonin compounds such as acetylshikonin, β-hydroxyisovalerylshikonin, and isobutyrylshikonin. The Shikonix Liquid also contained, as additional minor components, α-methyl-n-butylshikonin, β,β-dimethylacrylshikonin, isovalerylshikonin, and shikonin.
The Shikonix Liquid (BG) was added at a dilution ratio of 150-fold to a ⅕ MS medium. The same amount of water was added as a control. ThermoZyme (manufactured by Fujimikogyo Co., Ltd.) was added at a dilution ratio of 150-fold as a positive control (Reference Example). The other test procedures were performed in the same way as in Test Example 3.

The subject of test [2] is maize. Nature of the test: Drought tolerance improvement test of maize. The format is in vivo. The note with it: 10 μM, 2 mL/cell; 19 days without water, counted 5 days after water addition.
Method: Four parts each involving 9 cells (3×3) were cut out of a 72-cell tray. Seedling soil was placed therein, and water was added. 4 seeds of maize were seeded per cell. The temperature was set to 20° C. using a plant growth chamber, followed by cultivation under 16-hour light and 8-hour dark conditions. After budding, each naphthoquinone compound dissolved in DMSO was diluted to 10 μM (final concentration) with deionized water to prepare a test solution of each example (final concentration of DMSO: 1.0% by volume). Each test solution was sprayed to leaf surface in one of the cell trays. The volume of the test solution sprayed was set to 2 mL/cell. The same volume of water was sprayed to the other cell tray and used as a control. After the spraying, cultivation was continued without the addition of water. 19 days after the spraying, water was added to the soil. 5 days after the water addition, the number of maize survivors was counted and divided by the initial number of growing plants to calculate a survival rate (%).
Test [3] concerns maize. Nature of the test: Salt tolerance improvement test of maize. The format is in vivo. The note with it: 10 μM, 2 mL/cell; 1.0% NaCl five times every two days; fresh weight. The protocol: (§1) Two parts each involving 9 cells (3×3) were cut out of a 72-cell tray. Seedling soil was placed therein, and water was added. 4 seeds of maize were seeded per cell. The temperature was set to 20° C. using a plant growth chamber, followed by cultivation under 16-hour light and 8-hour dark conditions. After budding, Shikonix Liquid (BG) (manufactured by Ichimaru Pharcos Co., Ltd.) was diluted 500-fold and sprayed as the Lithospermi radix extract to leaf surface in one of the cell trays. The volume of the Shikonix Liquid sprayed was set to 2 mL/cell. The same volume of water was sprayed to the other cell tray and used as a control. Two days later, a 1.0% NaCl solution was prepared and absorbed from the underside of each cell tray. The NaCl solution treatment was performed five times every two days. The above-ground parts were cut off, and their fresh weights were measured. An average value (g/plant) was calculated.
as §1, with “Four parts” for “Two parts”, “budding, each naphthoquinone compound dissolved in DMSO” for “budding, Shikonix Liquid (BG) (manufactured by Ichimaru Pharcos Co., Ltd.)”, “diluted to 10 μM (final concentration) with deionized water to prepare a test solution of each example (final concentration of DMSO: 1.0% by volume). Each test solution was” for “diluted 500-fold and”, “sprayed” for “sprayed as the Lithospermi radix extract”, “the test solution” for “the Shikonix Liquid”

A further test relates to sprouted alfalfa. Nature of the test: Spindly growth suppression test of seedling. The note with it: 50 μL sprayed per individual, 10 days at 25° C. The format is in vivo, Medicago sativa. The protocol: A spindly growth suppression test was conducted using sprouted alfalfa as a seedling and naphthoquinone compounds as quinone compounds. First, just-sprouted alfalfa (Medicago sativa of the family Leguminosae) was transplanted to a plastic cup containing vermiculite. Each naphthoquinone compound (shown in Table 5) dissolved in DMSO was diluted to 100 μM or 1000 μM (final concentration) with deionized water to prepare a test solution of each example (final concentration of DMSO: 1.0% by volume). An aqueous solution containing 1.0% by volume of DMSO was used as a test solution of a control. 50 μL of the test solution was sprayed per alfalfa individual. Then, cultivation was performed for 10 days in an incubator of 25° C., followed by hypocotyl length measurement.

Turning to `O=C1C=CC(=O)c2c(O)ccc(O)c21` [Example 5, 5,8-Dihydroxy-1,4-naphthoquinone], the “Ratio of 4-MU amount vs. positive control” value in test [1] (1 μM) is given as 0.48; in test [1] (10 μM), 2.49; in test [1] (100 μM) it was 1.96; in test [1] (1000 μM), 0.78. For the same molecule, the Chlorophyll concentration in the test with Arabidopsis thaliana worked out at 6.66 mg/L. In addition, the Survival rate with maize [2] is 92%. The Above-ground part weight with maize [3] is listed as 0.653 g/plant. The values for the Hypocotyl length in the test with sprouted alfalfa (100 μM) and in the test on sprouted alfalfa (1000 μM) were 14.6 mm and 15.2 mm, respectively.
As to `O=C1C(Cl)=C(Cl)C(=O)c2ccccc21` [Example 6, 2,3-Dichloro-1,4-naphthoquinone], the “Ratio of 4-MU amount vs. positive control” value in test [1] (1 μM) was found to be 0.47; in test [1] (10 μM), 5.12; in test [1] (100 μM), 1.86; in test [1] (1000 μM), 1.16. The molecule also registered a Chlorophyll concentration with Arabidopsis thaliana of 6.21 mg/L. The same molecule registered a Survival rate in the test on maize [2] of 53%. In the test on maize [3], the Above-ground part weight is listed as 0.726 g/plant.
With `O=C1C(Cl)=C(Cl)C(=O)c2c(O)ccc(O)c21` [Example 7, 2,3-Dichloro-5,8-dihydroxy-1,4-naphthoquinone], the “Ratio of 4-MU amount vs. positive control” value in test [1] (1 μM) was found to be 0.80; in test [1] (10 μM) it was 5.91; in test [1] (100 μM), 1.72; in test [1] (1000 μM), 0.95. The molecule also displayed a Chlorophyll concentration with Arabidopsis thaliana of 6.12 mg/L. This molecule came in with a Survival rate with maize [2] of 88%. Besides, the Above-ground part weight in the test on maize [3] came to 0.677 g/plant. For the same molecule, the results for the Hypocotyl length in the test with sprouted alfalfa (100 μM) and in the test on sprouted alfalfa (1000 μM) were 18.1 mm and 14.6 mm, respectively.
